In PubChem BioAssay AID1259407 (Chemical Carcinogenesis Research Information System (CCRIS), 2018) one finds mutagenic call data, which are given here for 5 molecules.

This data set relates to CCRIS mutagenicity, Ames/micronucleus/aberration tests. The data set is described as follows: CCRIS mutagenicity studies.
Where [1] appears, read: Test System: AMES SALMONELLA TYPHIMURIUM, Strain/Indicator: TA100, Metabolic Activation: NONE, Method: STANDARD PLATE.

Activity calls are given as the source filed them. No rule for the calls is given here.

With `Nc1ncn([C@@H]2O[C@H](CO)[C@@H](O)[C@H]2O)c(=O)n1`, the mutagenic call by setting is: (End Point: IN VITRO CHROMOSOMAL ABERRATIONS, Test System: CHO CELLS (K1), Metabolic Activation: NONE) “active; positive”; (End Point: IN VITRO CHROMOSOMAL ABERRATIONS, Test System: CHO CELLS (XRS-5), Metabolic Activation: NONE) “active; positive”; (Test System: AMES SALMONELLA TYPHIMURIUM, Strain/Indicator: TA92, Metabolic Activation: NONE, Method: STANDARD PLATE) “active; positive”; (Test System: AMES SALMONELLA TYPHIMURIUM, Strain/Indicator: TA98, Metabolic Activation: NONE, Method: FLUCTUATION (MICROTITER)) “active; positive”; under setting [1], “active; positive”; (Test System: AMES SALMONELLA TYPHIMURIUM, Strain/Indicator: TA102, Metabolic Activation: NONE, Method: STANDARD PLATE) “active; positive”. Further, the mutagenic call (Test System: AMES SALMONELLA TYPHIMURIUM, Strain/Indicator: TA104, Metabolic Activation: NONE, Method: STANDARD PLATE) is “active; positive”; the mutagenic call (Test System: AMES SALMONELLA TYPHIMURIUM, Strain/Indicator: TA1535, Metabolic Activation: NONE, Method: STANDARD PLATE) was “active; positive”; the mutagenic call (Test System: AMES SALMONELLA TYPHIMURIUM, Strain/Indicator: TA1535, Metabolic Activation: RAT, LIVER, S-9, AROCLOR 1254, Method: STANDARD PLATE) is “active; positive”; the mutagenic call (Test System: AMES SALMONELLA TYPHIMURIUM, Strain/Indicator: TA1537, Metabolic Activation: NONE, Method: FLUCTUATION (MICROTITER)) is “inactive; negative”; the mutagenic call (Test System: AMES SALMONELLA TYPHIMURIUM, Strain/Indicator: TA2638, Metabolic Activation: NONE, Method: STANDARD PLATE) was “active; positive”; the mutagenic call (Test System: AMES SALMONELLA TYPHIMURIUM, Strain/Indicator: TA2640, Metabolic Activation: NONE, Method: STANDARD PLATE) is “inactive; negative”. The mutagenic call reads like this: (Test System: AMES SALMONELLA TYPHIMURIUM, Strain/Indicator: TA7001, Metabolic Activation: NONE, Method: FLUCTUATION (MICROTITER)) “inactive; negative”; (Test System: AMES SALMONELLA TYPHIMURIUM, Strain/Indicator: TA7002, Metabolic Activation: NONE, Method: FLUCTUATION (MICROTITER)) “inactive; negative”; (Test System: AMES SALMONELLA TYPHIMURIUM, Strain/Indicator: TA7003, Metabolic Activation: NONE, Method: FLUCTUATION (MICROTITER)) “inactive; negative”; (Test System: AMES SALMONELLA TYPHIMURIUM, Strain/Indicator: TA7004, Metabolic Activation: NONE, Method: FLUCTUATION (MICROTITER)) “active; positive”; (Test System: AMES SALMONELLA TYPHIMURIUM, Strain/Indicator: TA7005, Metabolic Activation: NONE, Method: FLUCTUATION (MICROTITER)) “inactive; negative”; (Test System: AMES SALMONELLA TYPHIMURIUM, Strain/Indicator: TA7006, Metabolic Activation: NONE, Method: FLUCTUATION (MICROTITER)) “active; positive”. The mutagenic call by setting is: (Test System: CHINESE HAMSTER OVARY, Strain/Indicator: CHO-AS52/6-THIOGUANINE, Metabolic Activation: NONE) “active; positive”; (Test System: MOUSE LYMPHOMA, Strain/Indicator: L5178Y (TK+/TK-), Metabolic Activation: RAT, LIVER, HEAT-DENATURED S-9, Method: SUSPENSION/PLATE) “active; positive”; (Test System: MOUSE LYMPHOMA, Strain/Indicator: L5178Y (TK+/TK-), Metabolic Activation: RAT, LIVER, S-9, AROCLOR 1254, Method: SUSPENSION/PLATE) “active; positive. reevaluation of results: inconclusive”; (Test System: MOUSE LYMPHOMA, Strain/Indicator: L5178Y (TK+/TK-), Metabolic Activation: RAT, LIVER, S-9, Method: SUSPENSION/PLATE) “active; positive”.
As for `OC1C=Cc2c(cc3ccc4cccc5ccc2c3c45)C1O` (stereo unspecified), where the note is “Test System: CHINESE HAMSTER V-79, Strain/Indicator: V-79/OUABAIN, Metabolic Activation: HAMSTER, EMBRYO, CELL-MEDIATED, Method: STANDARD PLATE”, the mutagenic call is “active; positive”.
`CCCN(CCC)N=O`: the mutagenic call is “active; positive” (Test System: AMES SALMONELLA TYPHIMURIUM, Strain/Indicator: TA100, Metabolic Activation: HAMSTER, LIVER, S-9, Method: PREINCUBATION); “inactive; negative” (Test System: AMES SALMONELLA TYPHIMURIUM, Strain/Indicator: TA100, Metabolic Activation: HUMAN, LIVER, S-9, Method: PREINCUBATION); “active; positive” (Test System: AMES SALMONELLA TYPHIMURIUM, Strain/Indicator: TA100, Metabolic Activation: MOUSE, INTACT UROTHELIAL CELLS, Method: FLUCTUATION TEST); “inactive; negative” under setting [1]; “inactive; negative” (Test System: AMES SALMONELLA TYPHIMURIUM, Strain/Indicator: TA100, Metabolic Activation: PIG, LIVER, S-9, Method: PREINCUBATION); “inactive; negative” (Test System: AMES SALMONELLA TYPHIMURIUM, Strain/Indicator: TA100, Metabolic Activation: RABBIT, LIVER, S-9, Method: STANDARD PLATE). For the same molecule, the mutagenic call is, setting by setting: (Test System: AMES SALMONELLA TYPHIMURIUM, Strain/Indicator: TA100, Metabolic Activation: RABBIT, LUNG, S-9, Method: STANDARD PLATE) “inactive; negative”; (Test System: AMES SALMONELLA TYPHIMURIUM, Strain/Indicator: TA100, Metabolic Activation: RABBIT, NASAL, S-9, Method: STANDARD PLATE) “inactive; negative”; (Test System: AMES SALMONELLA TYPHIMURIUM, Strain/Indicator: TA100, Metabolic Activation: RAT, INTACT UROTHELIAL CELLS, Method: FLUCTUATION TEST) “active; positive”; (Test System: AMES SALMONELLA TYPHIMURIUM, Strain/Indicator: TA100, Metabolic Activation: RAT, LIVER, S-9, AROCLOR 1254, Method: PREINCUBATION) “active; positive”; (Test System: AMES SALMONELLA TYPHIMURIUM, Strain/Indicator: TA100, Metabolic Activation: RAT, LIVER, S-9, KC500 OR PHENOBARBITAL, Method: LIQUID SUSPENSION) “active; positive”; (Test System: AMES SALMONELLA TYPHIMURIUM, Strain/Indicator: TA100, Metabolic Activation: RAT, LIVER, S-9, Method: PREINCUBATION) “inactive; negative”. The mutagenic call (Test System: AMES SALMONELLA TYPHIMURIUM, Strain/Indicator: TA100, Metabolic Activation: RAT, LIVER, S-9, Method: STANDARD PLATE) is “inactive; negative”; the mutagenic call (Test System: AMES SALMONELLA TYPHIMURIUM, Strain/Indicator: TA100, Metabolic Activation: RAT, LUNG, S-9, Method: STANDARD PLATE) is “inactive; negative”; the mutagenic call (Test System: AMES SALMONELLA TYPHIMURIUM, Strain/Indicator: TA100, Metabolic Activation: RAT, NASAL, S-9, Method: STANDARD PLATE) was “active; positive”; the mutagenic call (Test System: AMES SALMONELLA TYPHIMURIUM, Strain/Indicator: TA102, Metabolic Activation: RAT, LIVER, S-9, AROCLOR 1254, Method: PREINCUBATION) was “active; positive”; the mutagenic call (Test System: AMES SALMONELLA TYPHIMURIUM, Strain/Indicator: TA104, Metabolic Activation: RAT, LIVER, S-9, AROCLOR 1254, Method: PREINCUBATION) is “active; positive”; the mutagenic call (Test System: AMES SALMONELLA TYPHIMURIUM, Strain/Indicator: TA1530, Metabolic Activation: RAT, LIVER, S-9, Method: STANDARD PLATE) was “active; positive”. Further, the mutagenic call was “active; positive” (Test System: AMES SALMONELLA TYPHIMURIUM, Strain/Indicator: TA1535, Metabolic Activation: RAT, LIVER, S-9, AROCLOR 1254, Method: PREINCUBATION); “inactive; negative” (Test System: AMES SALMONELLA TYPHIMURIUM, Strain/Indicator: TA1535ER, Metabolic Activation: NONE, Method: STANDARD PLATE); “active; positive” (Test System: AMES SALMONELLA TYPHIMURIUM, Strain/Indicator: TA1975, Metabolic Activation: RAT, LIVER, S-9, AROCLOR 1254, Method: PREINCUBATION); “active; positive” (Test System: AMES SALMONELLA TYPHIMURIUM, Strain/Indicator: YG7104ER, Metabolic Activation: NONE, Method: STANDARD PLATE); “active; positive” (Test System: AMES SALMONELLA TYPHIMURIUM, Strain/Indicator: YG7108ER, Metabolic Activation: NONE, Method: STANDARD PLATE); “active; positive” (Test System: CHINESE HAMSTER V-79, Strain/Indicator: V-79/8-AZAGUANINE, Metabolic Activation: RAT, LIVER, S-15, PHENOBARBITAL, Method: STANDARD PLATE). The mutagenic call (Test System: CHINESE HAMSTER V-79, Strain/Indicator: V-79/OUABAIN, Metabolic Activation: HAMSTER, HEPATOCYTES, Method: CELL-MEDIATED) was “active; positive”.
For the molecule `CN1CC=C(c2ccccc2)CC1`, the mutagenic call by setting is: (Test System: AMES SALMONELLA TYPHIMURIUM, Strain/Indicator: TA100, Metabolic Activation: NONE, Method: PREINCUBATION) “inactive; negative”; (Test System: AMES SALMONELLA TYPHIMURIUM, Strain/Indicator: TA102, Metabolic Activation: NONE, Method: PREINCUBATION) “inactive; negative”.
For `O=[N+]([O-])c1cc(-c2cccc([N+](=O)[O-])c2O)ccc1O`, the mutagenic call (Test System: AMES SALMONELLA TYPHIMURIUM, Strain/Indicator: TA98, Metabolic Activation: NONE, Method: PREINCUBATION) is “inactive; negative”.
